Experimental data from PubChem BioAssay (NCI).
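A five-concentration, 48-hour dose response in 96-well plates underlies each endpoint, interpolated linearly between surrounding concentrations. GI50 marks 50% less growth. TGI: total growth inhibition.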 Where a SMILES comes first, the peptide text is derived from it. [ ]: non-standard residue; d: D form. The star is where a group is joined. Cbz = O=C(OCc1ccccc1)*; Aib = CC(C)(N)C(=O)O

Key:
Experiment in all cases: NCI anticancer screen, dose series, 48 h
[1] = system: NCI/ADR-RES ovarian
[2] = system: IGROV1 ovarian
[3] = system: SNB-19 CNS
[4] = system: HL-60(TB) leukemia
[5] = system: U251 CNS
[6] = system: SF-268 CNS
[7] = system: A549 NSCLC
[8] = system: OVCAR-4 ovarian
[9] = system: EKVX NSCLC
[10] = system: HOP-62 NSCLC
[11] = system: SNB-75 CNS
[12] = system: MALME-3M melanoma
[13] = system: DU-145 prostate

Compound	TGI [1]	TGI [2]	TGI [3]	TGI [4]	TGI [5]	TGI [6]	TGI [7]	TGI [8]	TGI [9]	TGI [10]	TGI [11]	TGI [12]	TGI [13]	GI50 [1]	GI50 [10]	GI50 [13]	GI50 [9]	GI50 [11]	GI50 [12]
Cc1ccc(C(=O)N/N=C(\N=Nc2ccccc2C(=O)O)c2ccc(N(C)C)cc2)cc1	> 100 µM	> 100 µM	> 100 µM	> 100 µM	> 100 µM	> 100 µM	> 100 µM	> 100 µM	> 100 µM	–	–	–	–	–	–	–	–	–	–
CSc1nc(-c2ccccc2)nc(=[N+]2CCOCC2)s1	–	> 100 µM	> 100 µM	> 100 µM	> 100 µM	> 100 µM	> 100 µM	> 100 µM	> 100 µM	> 100 µM	> 100 µM	> 100 µM	–	–	–	–	–	–	–
NS(=O)(=O)c1ccc(NCc2nc3ccccc3[nH]2)cc1	> 100 µM	> 100 µM	> 100 µM	–	> 100 µM	> 100 µM	> 100 µM	> 100 µM	> 100 µM	> 100 µM	> 100 µM	> 100 µM	> 100 µM	–	–	–	–	–	–
CN1C/C(=C\c2cccs2)C(=O)/C(=C/c2cccs2)C1	94.5 µM	92.2 µM	> 100 µM	–	30.7 µM	> 100 µM	> 100 µM	55.4 µM	75.8 µM	> 100 µM	–	> 100 µM	> 100 µM	–	–	–	–	–	–
Cc1cc(OCC(O)CO)ccc1Cl (stereo unspecified)	–	> 100 µM	> 100 µM	> 100 µM	> 100 µM	> 100 µM	> 100 µM	> 100 µM	> 100 µM	> 100 µM	> 100 µM	> 100 µM	–	–	–	–	–	–	–
CC(C)(C)OC(=O)NNCC(O)COc1ccccc1 (stereo unspecified)	> 100 µM	> 100 µM	> 100 µM	> 100 µM	> 100 µM	> 100 µM	> 100 µM	> 100 µM	> 100 µM	> 100 µM	–	> 100 µM	> 100 µM	–	–	–	–	–	–
Cc1cc(O)c(C(C)C)cc1C(=S)Nc1ccc(Cl)cc1	34.5 µM	15.9 µM	–	24.9 µM	27.8 µM	19.7 µM	–	20.2 µM	25.3 µM	32.9 µM	–	21.9 µM	31.5 µM	–	–	–	–	–	–
COc1cccc(N(CN2C(=O)CCC2OC)C(C)=O)c1 (stereo unspecified)	> 100 µM	–	> 100 µM	49.2 µM	> 100 µM	> 100 µM	> 100 µM	> 100 µM	–	> 100 µM	> 100 µM	–	> 100 µM	–	–	–	–	–	–
N=C(N)c1ccc(-c2ccc(-c3ccc(Cl)cc3Cl)s2)nc1	3.64 µM	–	–	–	–	–	–	–	6.56 µM	3.92 µM	2.83 µM	3.23 µM	3.27 µM	1.88 µM	1.89 µM	1.85 µM	2.47 µM	1.43 µM	1.71 µM
CC1=NN(c2nc(N)nc(-c3cc4ccccc4oc3=N)n2)C(C)(C)C1	43.9 µM	32.1 µM	> 100 µM	46.2 µM	76.8 µM	36.7 µM	41.3 µM	31.2 µM	32.8 µM	37.2 µM	–	32.2 µM	53.7 µM	–	–	–	–	–	–
CCOP(=O)(Cc1nc(C#N)c(N)o1)OCC	–	> 100 µM	> 100 µM	> 100 µM	> 100 µM	> 100 µM	–	> 100 µM	> 100 µM	> 100 µM	–	> 100 µM	> 100 µM	–	–	–	–	–	–
CCCCCCCCCCOc1ccc(N=Nc2nnc(-c3ccc(OCCCCC)cc3)s2)cc1	> 100 µM	> 100 µM	> 100 µM	–	> 100 µM	> 100 µM	> 100 µM	> 100 µM	> 100 µM	> 100 µM	–	> 100 µM	> 100 µM	–	–	–	–	–	–
ClC1=C(Cl)C2OC3C=CCC3OC2C(Cl)=C1Cl (stereo unspecified)	> 100 µM	> 100 µM	–	> 100 µM	> 100 µM	> 100 µM	–	> 100 µM	> 100 µM	> 100 µM	–	–	> 100 µM	–	–	–	–	–	–
CCN(CCC#N)C(=O)Nc1ccccc1	> 100 µM	> 100 µM	> 100 µM	–	> 100 µM	–	> 100 µM	> 100 µM	> 100 µM	> 100 µM	> 100 µM	> 100 µM	> 100 µM	–	–	–	–	–	–
O=[N+]([O-])c1ccc(Nc2cccc3c2[nH]c2c(-c4ccccc4)nccc23)c([N+](=O)[O-])c1	> 100 µM	> 100 µM	> 100 µM	> 100 µM	> 100 µM	> 100 µM	> 100 µM	> 100 µM	> 100 µM	> 100 µM	> 100 µM	> 100 µM	–	–	–	–	–	–	–
c1ccc(OCc2nnc(CCCCCCCCc3nnc(COc4ccccc4)o3)o2)cc1	> 100 µM	> 100 µM	> 100 µM	> 100 µM	> 100 µM	> 100 µM	> 100 µM	> 100 µM	> 100 µM	> 100 µM	83.4 µM	–	> 100 µM	–	–	–	–	–	–
O=S(=O)(O)c1cc(N=[N+]([O-])c2ccc(N=Nc3ccccc3)cc2S(=O)(=O)O)ccc1/C=C/c1ccc(N=[N+]([O-])c2ccc(N=Nc3ccccc3)cc2S(=O)(=O)O)cc1S(=O)(=O)O	> 100 µM	> 100 µM	> 100 µM	> 100 µM	> 100 µM	> 100 µM	> 100 µM	> 100 µM	> 100 µM	> 100 µM	> 100 µM	> 100 µM	–	–	–	–	–	–	–
CC(C)(NC(=O)C(C)(C)NC(=O)OCc1ccccc1)C(=O)O (Cbz-[Aib]-[Aib]-OH)	> 100 µM	> 100 µM	> 100 µM	–	> 100 µM	> 100 µM	> 100 µM	> 100 µM	> 100 µM	> 100 µM	> 100 µM	> 100 µM	> 100 µM	–	–	–	–	–	–
Nc1ncc2c(n1)-c1ccccc1OC2	> 100 µM	> 100 µM	> 100 µM	> 100 µM	> 100 µM	> 100 µM	> 100 µM	> 31.6 µM	> 100 µM	> 100 µM	94.4 µM	> 100 µM	–	–	–	–	–	–	–
